Assay results reported in paper PMC7617969, “Carboxylic Acid Bioisosteres Boost Nurr1 Agonist Selectivity” (Journal of medicinal chemistry, 2025).
Values joined by “and” are separate entries in the source; they are usually repeats but may differ in a detail not shown here. Equal entries are not always repeated. Where two headings read alike, the source gives them in different places.

Legend:
[1] = target: T1, Nurr1 (Homo sapiens, UniProt P43354); test: Gal4-Nurr1 hybrid reporter gene assay; type: cell-based; settings: for EC50 / max. activation (Nurr1): Gal4-Nurr1 hybrid reporter gene assay; for EC50: HEK293T cells, mean ± S.E.M., n ≥ 3; for max. activation (Nurr1): fold activation vs untreated control; for selectivity index DHODH/Nurr1: IC50(DHODH) / EC50(Nurr1); for efficacy_NR4A2: supplementary csv, max. activation in %
T1 construct: expressed in transfected cells; host or cells: HEK293T

[2] = target: T2, DHODH (Homo sapiens, UniProt Q02127); test: DHODH inhibition colorimetric assay on recombinant human protein; type: biochemical
T2 construct: using an N-terminally truncated recombinant DHODH enzyme as described previously[20]

[3] = target: T1, Nurr1; settings: cited from earlier work; for efficacy_NR4A2: supplementary csv
[4] = target: T2, DHODH; settings: recombinant human DHODH; cited from earlier work
[5] = recombinant human DHODH, colorimetric, mean ± S.E.M., n ≥ 3, read-out: IC50 (DHODH)
[6] = Gal4-Nurr1 hybrid reporter gene assay

T2 sequence (Q02127 31-395): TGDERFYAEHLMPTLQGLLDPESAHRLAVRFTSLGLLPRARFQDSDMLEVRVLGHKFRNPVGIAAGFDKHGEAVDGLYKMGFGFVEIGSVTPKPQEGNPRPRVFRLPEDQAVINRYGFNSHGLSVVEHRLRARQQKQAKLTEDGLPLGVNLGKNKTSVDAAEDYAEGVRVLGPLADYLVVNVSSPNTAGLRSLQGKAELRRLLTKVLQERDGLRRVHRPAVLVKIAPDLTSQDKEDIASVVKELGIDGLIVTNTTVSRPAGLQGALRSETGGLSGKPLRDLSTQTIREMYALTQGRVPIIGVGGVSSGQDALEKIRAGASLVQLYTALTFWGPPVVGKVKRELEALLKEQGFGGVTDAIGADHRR
T1 sequence (P43354 360-595 limits assumed): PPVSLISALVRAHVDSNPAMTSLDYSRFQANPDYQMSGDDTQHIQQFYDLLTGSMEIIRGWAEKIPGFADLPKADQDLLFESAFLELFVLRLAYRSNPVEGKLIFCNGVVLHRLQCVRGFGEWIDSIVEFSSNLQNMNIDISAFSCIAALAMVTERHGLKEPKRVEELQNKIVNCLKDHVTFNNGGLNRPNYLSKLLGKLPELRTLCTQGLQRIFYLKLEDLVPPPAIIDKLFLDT

| SMILES | EC50 [1] [nM] | max. activation (Nurr1) [1] [fold] | selectivity index DHODH/Nurr1 [1] | efficacy_NR4A2 [1] [%] | inhibition at 100 µM ([2]; recombinant human DHODH) [%] | IC50 [2, 5] [nM] | max. activation (Nurr1) [3, 6] [fold] | efficacy_NR4A2 [3] [%] | IC50 ([2]; supplementary csv, read-out: IC50_DHODH) [nM] | EC50 [3, 6] [nM] | IC50 [4] | Nurr1 preference/selectivity over DHODH [1] [fold] |
| --- | --- | --- | --- | --- | --- | --- | --- | --- | --- | --- | --- | --- |
| [2H]C([2H])([2H])Oc1cccc(-c2c(F)c(F)c(NC(=O)c3cscc3-c3nc(=S)on3C)c(F)c2F)c1 [compound 25, 4-(2-Methyl-5-thioxo-2,5-dihydro-1,2,4-oxadiazol-3-yl)-N-{2,3,5,6-tetrafluoro-3’-(^2H3)methoxy-[1,1'-biphenyl]-4-yl}thiophene-3-carboxamide] | 900 ± 100 | 2.3±0.2 | >100 | 230 | 40 ± 8 |  |  |  |  |  |  |  |
| [2H]C([2H])([2H])Oc1cccc(-c2c(F)c(F)c(NC(=O)c3ccccc3-c3nn[nH]n3)c(F)c2F)c1 [compound 31, N-{2,3,5,6-Tetrafluoro-3’-(^2H3)methoxy-[1,1'-biphenyl]-4-yl}-2-(2H-tetrazol-5-yl)benzamide] | 140 ± 10 | 1.9±0.1 | 1.9 | 190 |  | 260 ± 40 |  |  |  |  |  |  |
| [2H]C([2H])([2H])Oc1cccc(-c2c(F)c(F)c(NC(=O)c3cscc3C3=NOS(=O)N3)c(F)c2F)c1 (stereo not drawn) [compound 28, 4-(2-Oxido-3H-1,2,3,5-oxathiadiazol-4-yl)-N-{2,3,5,6-tetrafluoro-3’-(^2H3)methoxy-[1,1'-biphenyl]-4-yl}thiophene-3-carboxamide] | 39 ± 5 | 2.4±0.1 | 30 | 240 |  | 1200 ± 200 |  |  |  |  |  |  |
| [2H]C([2H])([2H])Oc1cccc(-c2c(F)c(F)c(NC(=O)c3cscc3-c3noc(=O)[nH]3)c(F)c2F)c1 [compound 21, 4-(5-Oxo-4,5-dihydro-1,2,4-oxadiazol-3-yl)-N-{2,3,5,6-tetrafluoro-3’-(^2H3)methoxy-[1,1'-biphenyl]-4-yl}thiophene-3-carboxamide] | 30 ± 10 | 2.2±0.1 | 13 | 220 |  | 400 ± 60 |  |  |  |  |  |  |
| [2H]C([2H])([2H])Oc1cccc(-c2c(F)c(F)c(NC(=O)c3cscc3-c3n[nH]c(=S)o3)c(F)c2F)c1 [compound 27, N-(2,3,5,6-Tetrafluoro-3’-(^2H3)methoxy-[1,1'-biphenyl]-4-yl)-4-{5-thioxo-4,5-dihydro-1,3,4-oxadiazol-2-yl}thiophene-3-carboxamide] | 160 ± 50 | 1.7±0.1 | 6.0 | 170 |  | 960 ± 90 |  |  |  |  |  |  |
| [2H]C([2H])([2H])Oc1cccc(-c2c(F)c(F)c(NC(=O)C3=C(C(=O)O)COC3)c(F)c2F)c1 [compound 29] |  | 2.5±0.1 |  | 250 |  |  |  |  |  |  |  |  |
| [2H]C([2H])([2H])Oc1cccc(-c2c(F)c(F)c(NC(=O)C3=C(C(=O)O)CCC3)c(F)c2F)c1 [compound 10] |  |  |  |  |  |  | 1.9±0.1 | 188 |  |  |  |  |
| [2H]C([2H])([2H])Oc1cccc(-c2c(F)c(F)c(NC(=O)c3ccsc3S(N)(=O)=O)c(F)c2F)c1 [compound 13, Sulfamoyl-N-{2,3,5,6-tetrafluoro-3'-(^2H3)methoxy-[1,1'-biphenyl]-4-yl}thiophene-3-carboxamide] | 1100 ± 100 | 2.09 ± 0.08 | 3.0 | 209 |  | 3330 ± 60 |  |  | 3300 |  |  |  |
| [2H]C([2H])([2H])Oc1cccc(-c2c(F)c(F)c(NC(=O)c3ccsc3S(C)(=N)=O)c(F)c2F)c1 (stereo not drawn) [compound 16, 2-(S-Methylsulfonimidoyl)-N-{2,3,5,6-tetrafluoro-3’-(^2H3)methoxy-[1,1'-biphenyl]-4-yl}thiophene-3-carboxamide] | 1200 ± 200 | 2.17 ± 0.11 | ~25 | 217 | 76 ± 6 |  |  |  |  |  |  |  |
| [2H]C([2H])([2H])Oc1cccc(-c2c(F)c(F)c(NC(=O)c3cscc3-c3noc(=S)[nH]3)c(F)c2F)c1 [compound 23, N-{2,3,5,6-Tetrafluoro-3’-(^2H3)methoxy-[1,1'-biphenyl]-4-yl}-4-(5-thioxo-4,5-dihydro-1,2,4-oxadiazol-3-yl)thiophene-carboxamide] | 36 ± 3 | 1.77±0.04 | 1.7 | 177 |  | 62 ± 4 |  |  |  |  |  |  |
| [2H]C([2H])([2H])Oc1cccc(-c2c(F)c(F)c(NC(=O)c3ccsc3-c3nn[nH]n3)c(F)c2F)c1 [compound 19, N-{2,3,5,6-Tetrafluoro-3’-(^2H3)methoxy-[1,1'-biphenyl]-4-yl}-2-(2H-tetrazol-5-yl)thiophene-3-carboxamide] | 21 ± 2 | 2.14 ± 0.11 | 28 | 214 |  | 600 ± 200 |  |  |  |  |  |  |
| [2H]C([2H])([2H])Oc1cccc(-c2cc(F)c(NC(=O)C3=C(c4noc(=O)[nH]4)CCC3)c(F)c2)c1 [compound 8] |  |  | 9 |  |  |  | 2.0±0.1 | 200 |  | 1000 ± 100 | 9.26 µM and 9 µM |  |
| [2H]C([2H])([2H])Oc1cccc(-c2c(F)c(F)c(NC(=O)c3ccsc3S(C)(=O)=O)c(F)c2F)c1 [compound 15, 2-(Methylsulfonyl)-N-{2,3,5,6-tetrafluoro-3’-(^2H3)methoxy-[1,1'-biphenyl]-4-yl}thiophene-3-carboxamide] | 1200 ± 100 | 2.05 ± 0.08 | ~100 | 205 | 49 ± 1 |  |  |  |  |  |  |  |
| [2H]C([2H])([2H])Oc1cccc(-c2c(F)c(F)c(NC(=O)c3cscc3-c3n[nH]c(=O)o3)c(F)c2F)c1 [compound 26, 4-(5-Oxo-4,5-dihydro-1,3,4-oxadiazol-2-yl)-N-{2,3,5,6-tetrafluoro-3’-(^2H3)methoxy-[1,1'-biphenyl]-4-yl}thiophene-3-carboxamide] | 17 ± 2 | 1.8±0.1 | 5.9 | 180 |  | 100 ± 10 |  |  |  |  |  |  |
| [2H]C([2H])([2H])Oc1cccc(-c2c(F)c(F)c(NC(=O)c3cscc3-c3nc(=O)on3C)c(F)c2F)c1 [compound 24, 4-(2-Methyl-5-oxo-2,5-dihydro-1,2,4-oxadiazol-3-yl)-N-{2,3,5,6-tetrafluoro-3’-(^2H3)methoxy-[1,1'-biphenyl]-4-yl}thiophene-3-carboxamide] | 2600 ± 300 | 1.9±0.2 | 4.2 | 190 |  | 11100 ± 600 |  |  |  |  |  |  |
| [2H]C([2H])([2H])Oc1cccc(-c2c(F)c(F)c(NC(=O)c3ccsc3-c3c(O)c(=O)c3=O)c(F)c2F)c1 [compound 17, 2-(2-Hydroxy-3,4-dioxocyclobut-1-en-1-yl)-N-{2,3,5,6-tetrafluoro-3’-(^2H3)methoxy-[1,1'-biphenyl]-4-yl}thiophene-3-carboxamide] | 100 ± 50 | 1.97 ± 0.43 | 7 | 197 |  | 700 ± 500 |  |  |  |  |  |  |
| [2H]C([2H])([2H])Oc1cccc(-c2c(F)c(F)c(NC(=O)c3cscc3-c3nn[nH]n3)c(F)c2F)c1 [compound 22, N-{2,3,5,6-Tetrafluoro-3’-(^2H3)methoxy-[1,1'-biphenyl]-4-yl}-4-(2H-tetrazol-5-yl)thiophene-3-carboxamide] | 11 ± 2 | 2.5±0.2 | 3.9 | 250 |  | 43 ± 6 |  |  |  |  |  |  |
| [2H]C([2H])([2H])Oc1cccc(-c2c(F)c(F)c(NC(=O)c3ccsc3S(=O)(=O)NC(C)=O)c(F)c2F)c1 [compound 14, 2-(N-Acetylsulfamoyl)-N-{2,3,5,6-tetrafluoro-3’-(^2H3)methoxy-[1,1'-biphenyl]-4-yl}thiophene-3-carboxamide] | 900 ± 100 | 1.89 ± 0.06 | 4.4 | 189 |  | 4000 ± 1000 |  |  |  |  |  |  |
| [2H]C([2H])([2H])Oc1cccc(-c2c(F)c(F)c(NC(=O)C3=C(c4nn[nH]n4)COC3)c(F)c2F)c1 [compound 30, N-{2,3,5,6-Tetrafluoro-3’-(^2H3)methoxy-[1,1'-biphenyl]-4-yl}-4-(2H-tetrazol-5-yl)-2,5-dihydrofuran-3-carboxamide] | 220 | 2.0±0.2 | 13.6 | 200 |  | 3000 ± 1000 |  |  |  |  |  | 14 |
| [2H]C([2H])([2H])Oc1cccc(-c2c(F)c(F)c(NC(=O)c3ccsc3-c3noc(=O)[nH]3)c(F)c2F)c1 [compound 18, 2-(5-Oxo-4,5-dihydro-1,2,4-oxadiazol-3-yl)-N-{2,3,5,6-tetrafluoro-3’-(^2H3)methoxy-[1,1'-biphenyl]-4-yl}thiophene-3-carboxamide] | 50 ± 10 | 1.86 ± 0.11 | 13 | 186 |  | 660 ± 80 |  |  |  |  |  |  |
